Results as given in US20260055079A1, “PHTHALAZINONE COMPOUNDS AS PARP7 INHIBITORS” (AZKARRA THERAPEUTICS, INC., priority 2022, published 2026).
Like-named read-outs stand apart in the source and are kept apart here.

Columns and labels:
[1] = tested on: HARA (human lung squamous cell carcinoma) cells; experiment: Cell proliferation assay (CellTiter-Glo), HARA; format: cell-based; settings: 6 days, CellTiter-Glo, read-out: HARA GI50
His-GST-PARP7 = His-GST-PARP7 (Homo sapiens (Human), UniProt Q7Z3E1); experiment: PARP7 biochemical assay; settings: read-out: PARP7 IC50
Sequence of His-GST-PARP7 (Q7Z3E1 whole entry): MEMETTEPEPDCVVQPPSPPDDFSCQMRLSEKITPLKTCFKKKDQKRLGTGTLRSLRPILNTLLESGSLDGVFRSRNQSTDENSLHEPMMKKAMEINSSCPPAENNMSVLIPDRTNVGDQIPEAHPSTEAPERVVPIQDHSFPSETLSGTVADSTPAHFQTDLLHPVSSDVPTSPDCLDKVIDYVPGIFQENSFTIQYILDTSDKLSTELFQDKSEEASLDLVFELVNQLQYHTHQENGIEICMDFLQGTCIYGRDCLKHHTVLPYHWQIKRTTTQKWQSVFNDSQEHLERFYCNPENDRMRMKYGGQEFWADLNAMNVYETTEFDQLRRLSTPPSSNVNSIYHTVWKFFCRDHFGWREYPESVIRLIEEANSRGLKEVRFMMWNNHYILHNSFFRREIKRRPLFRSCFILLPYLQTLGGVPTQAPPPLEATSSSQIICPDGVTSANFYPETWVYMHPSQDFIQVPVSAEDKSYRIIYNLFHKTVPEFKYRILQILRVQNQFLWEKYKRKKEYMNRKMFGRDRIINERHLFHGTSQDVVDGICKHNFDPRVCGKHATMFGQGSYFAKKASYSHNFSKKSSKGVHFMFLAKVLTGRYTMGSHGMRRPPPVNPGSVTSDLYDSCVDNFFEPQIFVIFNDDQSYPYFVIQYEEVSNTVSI

[2] = tested on: NCI-H1373 (human lung adenocarcinoma) cells; experiment: Cell proliferation assay (CellTiter-Glo), NCI-H1373; format: cell-based; settings: 6 days, CellTiter-Glo, read-out: NCI-H1373 GI50

| Molecule | GI50 [1] [nM] | IC50 (His-GST-PARP7) [nM] | GI50 [2] [nM] | GI50 ([1]; Homo sapiens, 144 h) [nM] | GI50 ([2]; Homo sapiens, NCI-H1373, 144 h) [nM] |
| --- | --- | --- | --- | --- | --- |
| 6-(4-(5-((7-Cyclobutoxy-4-oxo-3,4-dihydrophthalazin-1-yl)methyl)-2-fluorobenzoyl)-6,6-difluoro-1,4-diazepan-1-yl)nicotinonitrile [Example 125] | > 5000 | < 50 | 100 to 1000 | – | – |
| CC#Cc1ccc2c(=O)[nH]nc(Cc3ccc(F)c(C(=O)N4CCN(c5cc(C(=O)NC)ccn5)CC4)c3)c2c1 [Example 56, 2-(4-(2-Fluoro-5-((4-oxo-7-(prop-1-ynyl)-3,4-dihydrophthalazin-1-yl)methyl)benzoyl)piperazin-1-yl)-N-methylisonicotinamide] | – | < 50 | – | > 5000 | 100 to 1000 |
| CC#Cc1ccc2c(=O)[nH]nc(Cc3ccc(F)c(C(=O)N4CCN(c5ccc(C#N)cn5)C(=O)C4(C)C)c3)c2c1 [Example 71, 6-(4-(2-Fluoro-5-((4-oxo-7-(prop-1-yn-1-yl)-3,4-dihydrophthalazin-1-yl)methyl)benzoyl)-3,3-dimethyl-2-oxopiperazin-1-yl)nicotinonitrile] | – | < 50 | – | – | 1000 to 5000 |
| CC#Cc1ccc2c(=O)[nH]nc(Cc3ccc(F)c(C(=O)N4CCN(c5ccc(C#N)cn5)CC(F)(F)C4)c3)c2c1 [Example 80, 6-(6,6-Difluoro-4-(2-fluoro-5-((4-oxo-7-(prop-1-ynyl)-3,4-dihydrophthalazin-1-yl)methyl)benzoyl)-1,4-diazepan-1-yl)nicotinonitrile] | – | < 50 | – | 1000 to 5000 | 100 to 1000 |
| CC#Cc1cc2c(Cc3ccc(F)c(C(=O)N4CCN(c5ccc(C#N)cn5)CC4)c3)n[nH]c(=O)c2cc1C [Example 83, 6-(4-(2-Fluoro-5-((6-methyl-4-oxo-7-(prop-1-yn-1-yl)-3,4-dihydrophthalazin-1-yl)methyl)benzoyl)piperazin-1-yl)nicotinonitrile] | – | < 50 | – | – | 100 to 1000 |
| N#Cc1ccc(N2CCN(C(=O)c3cccc(Cc4n[nH]c(=O)c5c(F)cccc45)c3)CC2)nc1 [Example 88, 6-(4-(3-((5-Fluoro-4-oxo-3,4-dihydrophthalazin-1-yl)methyl)benzoyl)piperazin-1-yl)nicotinonitrile] | – | < 50 | – | – | 100 to 1000 |
| N#Cc1ccc(N2CCN(C(=O)c3cc(Cc4n[nH]c(=O)c5cccnc45)ccc3F)CC2)nc1 [Example 92, 6-(4-(2-Fluoro-5-((5-oxo-5,6-dihydropyrido[2,3-d]pyridazin-8-yl)methyl)benzoyl)piperazin-1-yl)nicotinonitrile] | – | 50 to 100 | – | > 5000 | > 5000 |
| O=C(c1cc(Cc2n[nH]c(=O)c3ccc(OC4CCC4)cc23)ccc1F)N1CCCN(c2ncc(C(F)(F)F)cn2)CC1 [Example 98, 6-Cyclobutoxy-4-(4-fluoro-3-(4-(5-(trifluoromethyl)pyrimidin-2-yl)-1,4-diazepane-1-carbonyl)benzyl)phthalazin-1(2H)-one] | – | < 50 | – | > 5000 | 100 to 1000 |
| O=C(c1cc(Cc2n[nH]c(=O)c3ccc(OC4CCC4)cc23)ccc1F)N1CCCN(C(=O)C2CC2)CC1 [Example 101, 6-Cyclobutoxy-4-(3-(4-(cyclopropanecarbonyl)-1,4-diazepane-1-carbonyl)-4-fluorobenzyl)phthalazin-1(2H)-one] | – | < 50 | – | > 5000 | > 5000 |
| O=C(c1cc(Cc2n[nH]c(=O)c3ccc(OC4CCC4)cc23)ccc1F)N1CCN(c2ncc(C(F)(F)F)cn2)CC(F)(F)C1 [Example 126, 6-Cyclobutoxy-4-(3-(6,6-difluoro-4-(5-(trifluoromethyl)pyrimidin-2-yl)-1,4-diazepane-1-carbonyl)-4-fluorobenzyl)phthalazin-1(2H)-one] | – | < 50 | – | > 5000 | 100 to 1000 |
| O=C(c1cc(Cc2n[nH]c(=O)c3ccc(OC4CCC4)cc23)ccc1F)N1CCN(C(=O)C2CC2)CC(F)(F)C1 [Example 127, 6-Cyclobutoxy-4-(3-(4-(cyclopropanecarbonyl)-6,6-difluoro-1,4-diazepane-1-carbonyl)-4-fluorobenzyl)phthalazin-1(2H)-one] | – | < 50 | – | – | 1000 to 5000 |
| N#Cc1cnc(N2CCN(C(=O)c3cc(Cc4n[nH]c(=O)c5ccc(OC6CCC6)cc45)ccc3F)CC2)c(C(F)(F)F)c1 [Example 129, 6-(4-(5-((7-cyclobutoxy-4-oxo-3,4-dihydrophthalazin-1-yl)methyl)-2-fluorobenzoyl)piperazin-1-yl)-5-(trifluoromethyl)nicotinonitrile] | – | < 50 | – | 1000 to 5000 | 1000 to 5000 |
| O=C(c1cc(Cc2n[nH]c(=O)c3ccc(OC4CCC4)cc23)ccc1F)N1CCN(c2ccc(CO)cn2)CC1 [Example 130, 6-cyclobutoxy-4-(4-fluoro-3-(4-(5-(hydroxymethyl)pyridin-2-yl)piperazine-1-carbonyl)benzyl)phthalazin-1(2H)-one] | – | < 50 | – | > 5000 | 100 to 1000 |
| COc1cc(C#N)cnc1N1CCN(C(=O)c2cc(Cc3n[nH]c(=O)c4ccc(OC5CCC5)cc34)ccc2F)CC1 [Example 131, 6-(4-(5-((7-cyclobutoxy-4-oxo-3,4-dihydrophthalazin-1-yl)methyl)-2-fluorobenzoyl)piperazin-1-yl)-5-methoxynicotinonitrile] | – | < 50 | – | 1000 to 5000 | 100 to 1000 |
| N#Cc1cnc(N2CCN(C(=O)c3cc(Cc4n[nH]c(=O)c5ccc(OC6CCC6)cc45)ccc3F)CC2)cc1C(F)(F)F [Example 132, 6-(4-(5-((7-cyclobutoxy-4-oxo-3,4-dihydrophthalazin-1-yl)methyl)-2-fluorobenzoyl)piperazin-1-yl)-4-(trifluoromethyl)nicotinonitrile] | – | – | – | 1000 to 5000 | < 100 |
| Cc1nc(N2CCN(C(=O)c3cc(Cc4n[nH]c(=O)c5ccc(OC6CCC6)cc45)ccc3F)CC2)ccc1C#N [Example 133, 6-(4-(5-((7-cyclobutoxy-4-oxo-3,4-dihydrophthalazin-1-yl)methyl)-2-fluorobenzoyl)piperazin-1-yl)-2-methylnicotinonitrile] | – | < 50 | – | > 5000 | 100 to 1000 |
| O=C(c1cc(Cc2n[nH]c(=O)c3ccc(OC4CCC4)cc23)ccc1F)N1CCN(c2ccc(O)cn2)CC1 [Example 140, 6-cyclobutoxy-4-(4-fluoro-3-(4-(5-hydroxypyridin-2-yl)piperazine-1-carbonyl)benzyl)phthalazin-1(2H)-one] | – | < 50 | – | – | 1000 to 5000 |
| O=C(c1cc(Cc2n[nH]c(=O)c3ccc(OC4CCC4)cc23)ccc1F)N1CCn2c(nnc2C(F)(F)F)C1 [Example 145, 6-cyclobutoxy-4-(4-fluoro-3-(3-(trifluoromethyl)-5,6,7,8-tetrahydro-[1,2,4]triazolo[4,3-a]pyrazine-7-carbonyl)benzyl)phthalazin-1(2H)-one] | – | < 50 | – | – | 1000 to 5000 |
| O=C(c1cc(Cc2n[nH]c(=O)c3ccc(OC4CCC4)cc23)ccc1F)N1CCn2c(nnc2C2CC2)C1 [Example 146, 6-cyclobutoxy-4-(3-(3-cyclopropyl-5,6,7,8-tetrahydro-[1,2,4]triazolo[4,3-a]pyrazine-7-carbonyl)-4-fluorobenzyl)phthalazin-1(2H)-one] | – | < 50 | – | – | > 5000 |
| O=C(c1cc(Cc2n[nH]c(=O)c3ccc(OC4CCC4)cc23)ccc1Cl)N1CCN(c2ncc(C(F)(F)F)cn2)CC1 [Example 169, 4-(4-chloro-3-(4-(5-(trifluoromethyl)pyrimidin-2-yl)piperazine-1-carbonyl)benzyl)-6-cyclobutoxyphthalazin-1(2H)-one] | – | < 50 | – | – | < 100 |
| COc1ccc2c(=O)[nH]nc(Cc3ccc(S(C)(=O)=O)c(C(=O)N4CCN(c5ccc(C#N)cn5)CC4)c3)c2c1 [Example 182, 6-(4-(5-((7-Methoxy-4-oxo-3,4-dihydrophthalazin-1-yl)methyl)-2-(methylsulfonyl)benzoyl)piperazin-1-yl)nicotinonitrile] | – | < 50 | – | – | > 5000 |
| C#CCNc1ccc2c(=O)[nH]nc(Cc3ccc(F)c(C(=O)N4CCn5c(nnc5C(F)(F)F)C4)c3)c2c1 [Example 185, 4-(4-Fluoro-3-(3-(trifluoromethyl)-5,6,7,8-tetrahydro-[1,2,4]triazolo[4,3-a]pyrazine-7-carbonyl)benzyl)-6-(prop-2-yn-1-ylamino)phthalazin-1(2H)-one] | – | 100 to 500 | – | – | > 5000 |
| N#Cc1ccc(N2CCN(C(=O)c3cc(Oc4n[nH]c(=O)c5ccccc45)ccc3F)CC2)nc1 [Example 190, 6-(4-(2-fluoro-5-((4-oxo-3,4-dihydrophthalazin-1-yl)oxy)benzoyl)piperazin-1-yl)nicotinonitrile] | – | 100 to 500 | – | – | 1000 to 5000 |
| CC#Cc1ccc2c(=O)[nH]nc(C(C)OCCC(=O)N3CCN(c4ncc(C(F)(F)F)cn4)CC3)c2c1 (stereo not drawn) [Example 192, 4-(1-(3-Oxo-3-(4-(5-(trifluoromethyl)pyrimidin-2-yl)piperazin-1-yl)propoxy)ethyl)-6-(prop-1-ynyl)phthalazin-1(2H)-one] | – | < 50 | – | – | 100 to 1000 |
| CC#Cc1ccc2c(=O)[nH]nc(Cc3ccc(F)c(C(=O)NCc4nnc(C(F)(F)F)o4)c3)c2c1 [Example 199, 2-Fluoro-5-((4-oxo-7-(prop-1-ynyl)-3,4-dihydrophthalazin-1-yl)methyl)-N-((5-(trifluoromethyl)-1,3,4-oxadiazol-2-yl)methyl)benzamide] | – | > 2000 | – | – | 1000 to 5000 |
| CC#Cc1ccc2c(=O)[nH]nc(Cc3ccc(F)c(C(=O)N(C)C4CN(c5ccc(C#N)cn5)C4)c3)c2c1 [Example 201, N-(1-(5-Cyanopyridin-2-yl)azetidin-3-yl)-2-fluoro-N-methyl-5-((4-oxo-7-(prop-1-yn-1-yl)-3,4-dihydrophthalazin-1-yl)methyl)benzamide] | – | 500 to 2000 | – | – | 1000 to 5000 |
